Source: US11319324B2, “Pyrazolo-pyrrolo-pyrimidine-dione derivatives as P2X3 inhibitors” (Bayer Aktiengesellschaft, priority 2017, dated 2022)
Where a name gives a salt, the structure may show the parent alone.

Experiments:
Format in all cases: cell-based
human P2X2/3 receptors = target: T1, human P2X2/3 receptors (Homo sapiens, UniProt P56373+Q9UBL9); assay: Intracellular calcium measurement, antagonist activity at human P2X2/3 receptors (hP2X23 1321N1), Fluo8; settings: for IC50: column 4); 1321N1 cells, human P2X2/3, Fluo8, agonist ATP at EC50; read-out: 4) hP2X2/3 IC50 [nM] (1321N1); for hP2X23/hP2X3* Selectivity (1321N1): ratio of column 4) hP2X2/3 to column 3) hP2X3, 1321N1
T1 construct: expressed in transfected cells; host or cells: human astrocytoma 1321N1 (1312N1 [sic])
T1 sequence (P56373 1-397): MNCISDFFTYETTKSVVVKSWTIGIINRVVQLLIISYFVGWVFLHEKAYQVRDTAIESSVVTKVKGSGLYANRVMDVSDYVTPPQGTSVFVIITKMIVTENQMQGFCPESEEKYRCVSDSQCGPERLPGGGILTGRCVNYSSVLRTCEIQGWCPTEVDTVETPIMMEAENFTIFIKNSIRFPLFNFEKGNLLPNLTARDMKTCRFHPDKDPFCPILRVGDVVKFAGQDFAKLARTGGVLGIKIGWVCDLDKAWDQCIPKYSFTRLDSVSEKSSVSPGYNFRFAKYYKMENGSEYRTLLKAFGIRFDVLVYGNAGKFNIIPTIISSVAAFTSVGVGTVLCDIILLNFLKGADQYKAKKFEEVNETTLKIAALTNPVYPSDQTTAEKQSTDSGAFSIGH
T1 sequence (Q9UBL9 1-471): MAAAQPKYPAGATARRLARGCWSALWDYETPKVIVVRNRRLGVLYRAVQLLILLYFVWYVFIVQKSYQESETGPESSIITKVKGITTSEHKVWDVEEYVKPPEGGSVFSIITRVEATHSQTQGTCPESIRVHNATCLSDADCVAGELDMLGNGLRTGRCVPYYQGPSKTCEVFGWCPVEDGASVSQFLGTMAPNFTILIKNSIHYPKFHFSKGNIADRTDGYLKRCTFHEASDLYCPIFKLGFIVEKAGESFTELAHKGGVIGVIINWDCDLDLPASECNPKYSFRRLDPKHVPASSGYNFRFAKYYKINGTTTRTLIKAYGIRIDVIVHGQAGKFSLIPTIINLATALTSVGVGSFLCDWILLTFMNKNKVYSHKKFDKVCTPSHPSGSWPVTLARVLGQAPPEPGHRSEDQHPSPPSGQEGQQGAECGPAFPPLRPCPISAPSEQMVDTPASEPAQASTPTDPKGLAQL
In short: (§1)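 Antagonism was assessed by decrease of the Fluo8 calcium signal after ATP challenge, with ATP dosed at the EC50 of whichever receptor was tested. Stable 1321N1 astrocytoma lines expressed either human P2X3 or both P2X2 and P2X3, and were dye-loaded 60 min before a 10 min compound incubation.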

human P2X3 receptor [1] = target: T2, human P2X3 receptor (Homo sapiens, UniProt P56373); assay: Intracellular calcium measurement to assess antagonist activity at human P2X3 receptors (hP2X3 CHO), photina luminescence; parameters: expressed in transfected cells; host or cells: Chinese hamster ovary (CHO) cells; settings: column 2), CHO cells, agonist α,β-methylene-ATP at EC50
T2 sequence (P56373 1-397): T1 sequence (P56373 1-397)
In short: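 Antagonism read as lowered photina luminescence after agonist stimulation in recombinant hP2X3/photina CHO cells. Cells seeded one day earlier (30 °C) and reconstituted with 5 μg/ml coelenterazine in 2 mM Ca-tyrode buffer for 3 h at 37 °C before measurement.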

human P2X3 receptor [2] = target: T2, human P2X3 receptor; assay: Intracellular calcium measurement, antagonist activity at human P2X3 receptors (hP2X3 1321N1), Fluo8; parameters: expressed in transfected cells; host or cells: human astrocytoma 1321N1 (1312N1 [sic]); settings: column 3); 1321N1 cells, human P2X3, Fluo8, agonist ATP at EC50
In short: as §1

Row | SMILES | IC50 (human P2X2/3 receptors) [nM] | hP2X23/hP2X3* Selectivity (1321N1) (human P2X2/3 receptors) | IC50 (human P2X3 receptor [1]) [nM] | IC50 (human P2X3 receptor [2]) [nM]
1 | CC(C)N1Cc2c(n(CC(=O)Nc3ccc(F)cn3)c3cc(NC4CC4)nn3c2=O)C1=O [Example 167, 2-[2-(cyclopropylamino)-5,8-dioxo-6-(propan-2-yl)-5,6,7,8-tetrahydro-4H-pyrazolo[1,5-a]pyrrolo[3,4-d]pyrimidin-4-yl]-N-(5-fluoropyridin-2-yl)acetamide] | 2300 | 128 | 36 | 18
2 | CCc1cc2n(CC(=O)Nc3ccc(Br)cn3)c3c(c(=O)n2n1)CN(C(C)C)C3=O [Example 67] | 6350 | 29 | 185 | 217
3 | CCc1cc2n(CC(=O)Nc3ccc(F)cn3)c3c(c(=O)n2n1)CN(CC1CCOC1)C3=O (stereo not drawn) [Example 74] | > 32000 | >73 | 570 | 437
4 | COC[C@H](C)N1Cc2c(n(CC(=O)Nc3ccc(F)cn3)c3cc(C(=O)N(C)C)nn3c2=O)C1=O [Example 189] | > 23500 | >291 | 35 | 81
5 | CC(C)N1Cc2c(n(CC(=O)Nc3ccc(F)cn3)c3cc(C4CCN(C(=O)OC(C)(C)C)C4)nn3c2=O)C1=O (racemic) [Example 226, tert-butyl(±)-3-[4-{2-[(5-fluoropyridin-2-yl)amino]-2-oxoethyl}-5,8-dioxo-6-(propan-2-yl)-5,6,7,8-tetrahydro-4H-pyrazolo[1,5-a]pyrrolo[3,4-d]pyrimidin-2-yl]pyrrolidine-1-carboxylate] | 3050 | 78 | 22 | 39
6 | CCc1cc2n(CC(=O)Nc3ccc(F)cn3)c3c(c(=O)n2n1)CN(C[C@H]1CNCCO1)C3=O [Example 247, 2-{2-ethyl-6-[(2R)-morpholin-2-ylmethyl]-5,8-dioxo-5,6,7,8-tetrahydro-4H-pyrazolo[1,5-a]pyrrolo[3,4-d]pyrimidin-4-yl}-N-(5-fluoropyridin-2-yl)acetamide] | > 32000 | >34 | 360 | 937
7 | COC[C@H](C)N1Cc2c(n(CC(=O)Nc3ccc(F)cn3)c3cc(NC4CCCC4)nn3c2=O)C1=O [Example 178] | 2200 | 917 | 14 | 2
8 | CC(C)N1Cc2c(n(CC(=O)Nc3ccc(F)cn3)c3cc(C4=CCN(C(=O)OC(C)(C)C)C4)nn3c2=O)C1=O [Example 142, tert-butyl 3-[4-{2-[(5-fluoropyridin-2-yl)amino]-2-oxoethyl}-5,8-dioxo-6-(propan-2-yl)-5,6,7,8-tetrahydro-4H-pyrazolo[1,5-a]pyrrolo[3,4-d]pyrimidin-2-yl]-2,5-dihydro-1H-pyrrole-1-carboxylate] | 1140 | 165 | 11 | 7
9 | CCc1cc2n(CC(=O)Nc3ccc(F)cn3)c3c(c(=O)n2n1)CN(C[C@H]1CCCO1)C3=O [Example 73, 2-{2-ethyl-5,8-dioxo-6-[(2R)-tetrahydrofuran-2-ylmethyl]-5,6,7,8-tetrahydro-4H-pyrazolo[1,5-a]pyrrolo[3,4-d]pyrimidin-4-yl}-N-(5-fluoropyridin-2-yl)acetamide] | 9500 | 91 | 122 | 104
10 | CCc1cc2n(CC(=O)Nc3ccc(F)cn3)c3c(c(=O)n2n1)CN(C1CCN(S(C)(=O)=O)C1)C3=O (stereo not drawn) [Example 272] | > 32000 | >52 | 433 | 610
11 | CC(C)N1Cc2c(n(CC(=O)Nc3ccc(F)cn3)c3cc(N(C)C)nn3c2=O)C1=O [Example 172] | 6350 | 150 | 35 | 42
12 | CCc1cc2n(CC(=O)Nc3ccc(F)cn3)c3c(c(=O)n2n1)CN(C1CCN(C(=O)OC(C)(C)C)CC1)C3=O [Example 76] | > 21500 | >13 | 470 | 1670
13 | CC(C)N1Cc2c(n(CC(=O)Nc3ccc(F)cn3)c3cc(C4CCN(S(C)(=O)=O)C4)nn3c2=O)C1=O (racemic) [Example 270, N-(5-fluoropyridin-2-yl)-2-{2-[(±)-1-(methylsulfonyl)pyrrolidin-3-yl]-5,8-dioxo-6-(propan-2-yl)-5,6,7,8-tetrahydro-4H-pyrazolo[1,5-a]pyrrolo[3,4-d]pyrimidin-4-yl}acetamide] | 6650 | 118 | 29 | 57
14 | CCc1cc2n(CC(=O)Nc3ccc(F)cn3)c3c(c(=O)n2n1)CN(C[C@H]1CCCN1)C3=O [Example 233, 2-{2-ethyl-5,8-dioxo-6-[(2R)-pyrrolidin-2-ylmethyl]-5,6,7,8-tetrahydro-4H-pyrazolo[1,5-a]pyrrolo[3,4-d]pyrimidin-4-yl}-N-(5-fluoropyridin-2-yl)acetamide hydrochloride (1:1)] | > 32000 | >30 | 335 | 1060
15 | COC[C@H](C)N1Cc2c(n(CC(=O)Nc3ccc(F)cn3)c3cc(C(=O)NCC(F)F)nn3c2=O)C1=O [Example 197] | 9800 | 291 | 19 | 34
16 | CC(C)N1Cc2c(n(CC(=O)Nc3ccc(F)cn3)c3cc(C#N)nn3c2=O)C1=O [Example 146, 2-[2-cyano-5,8-dioxo-6-(propan-2-yl)-5,6,7,8-tetrahydro-4H-pyrazolo[1,5-a]pyrrolo[3,4-d]pyrimidin-4-yl]-N-(5-fluoropyridin-2-yl)acetamide] | 6950 | 56 | 97 | 124
17 | CCc1cc2n(CC(=O)Nc3ccc(F)cn3)c3c(c(=O)n2n1)CN(C[C@@H]1COCCN1)C3=O [Example 248, 2-{2-ethyl-6-[(3R)-morpholin-3-ylmethyl]-5,8-dioxo-5,6,7,8-tetrahydro-4H-pyrazolo[1,5-a]pyrrolo[3,4-d]pyrimidin-4-yl}-N-(5-fluoropyridin-2-yl)acetamide] | > 32000 | >43 | 185 | 740
18 | CCc1cc2n(CC(=O)Nc3ccc(F)cn3)c3c(c(=O)n2n1)CN(C[C@@H]1COCCN1C(C)C)C3=O [Example 260] | > 20600 | >146 | 108 | 141
19 | CC(C)N1Cc2c(n(CC(=O)Nc3ccc(F)cn3)c3cc(C(C)(C)O)nn3c2=O)C1=O [Example 88] | > 23500 | >423 | 115 | 56
20 | CC(C)N1Cc2c(n(CC(=O)Nc3ccc(F)cn3)c3cc(C4CCN(C)C4)nn3c2=O)C1=O (racemic) [Example 249, N-(5-fluoropyridin-2-yl)-2-{2-[(±)-1-methylpyrrolidin-3-yl]-5,8-dioxo-6-(propan-2-yl)-5,6,7,8-tetrahydro-4H-pyrazolo[1,5-a]pyrrolo[3,4-d]pyrimidin-4-yl}acetamide] | 9200 | 85 | 305 | 109
21 | COCc1cc2n(CC(=O)Nc3ccc(F)cn3)c3c(c(=O)n2n1)CN(C(C)C)C3=O [Example 57] | > 32000 | >121 | 125 | 265
